≈ marks a conversion by molar mass, not a printed value. Where a name gives a salt, the structure may show the parent alone.
How the values were obtained:
[1] = test system: S. aureus 25923; test: Antibacterial activity in vitro (agar dilution); assay type: cell-based; conditions: Staphylococcus aureus, agar dilution (MuellerHinton agar), inoculum 10^4 CFU/spot, read-out: minimum inhibitory concentration (MIC)
[2] = target: T1, DNA gyrase (Escherichia coli, UniProt P0AES4+P0AES6); test: Inhibition of DNA gyrase activity (DNA gyrase supercoiling assay, relaxed pUC18 plasmid as substrate); assay type: biochemical, E. coli H560
T1 construct: supercoiling of relaxed pUC18
Procedure: A. Inhibition of DNA gyrase activity
The inhibition of DNA gyrase activity was measured using a DNA gyrase supercoiling assay according to R. Otter & N. Cozzarelli: Methods in Enzymology, Vol. 100, pp 171-180 (1983). DNA gyrase was isolated from E. coli H560, and relaxed pUC18 plasmid was used as substrate. The activities as regards inhibition of DNA gyrase activity, expressed as maximum non-effective concentration of the test compound (MNC in μg/ml) are compiled in the following Table 1: […]

[3] = test system: S. aureus Smith; test: Antibacterial activity in vitro (agar dilution); assay type: cell-based; conditions: Staphylococcus aureus, agar dilution (MuellerHinton agar), inoculum 10^4 CFU/spot, read-out: minimum inhibitory concentration (MIC)
[4] = test system: P. aeruginosa 799/61; test: Antibacterial activity in vitro (agar dilution); assay type: cell-based; conditions: Pseudomonas aeruginosa, agar dilution (MuellerHinton agar), inoculum 10^4 CFU/spot, read-out: minimum inhibitory concentration (MIC)
[5] = test system: S. pyogenes 15; test: Antibacterial activity in vitro (agar dilution); assay type: cell-based; conditions: Streptococcus pyogenes, agar dilution (MuellerHinton agar), inoculum 10^4 CFU/spot, read-out: minimum inhibitory concentration (MIC)
[6] = test system: E. coli B; test: Antibacterial activity in vitro (agar dilution); assay type: cell-based; conditions: Escherichia coli, agar dilution (MuellerHinton agar), inoculum 10^4 CFU/spot, read-out: minimum inhibitory concentration (MIC)
[7] = test system: S. epidermidis 16-2; test: Antibacterial activity in vitro (agar dilution); assay type: cell-based; conditions: Staphylococcus epidermidis, 162, agar dilution (MuellerHinton agar), inoculum 10^4 CFU/spot, read-out: minimum inhibitory concentration (MIC)
[8] = test system: S. faecalis 6; test: Antibacterial activity in vitro (agar dilution); assay type: cell-based; conditions: Enterococcus faecalis, agar dilution (MuellerHinton agar), inoculum 10^4 CFU/spot, read-out: minimum inhibitory concentration (MIC)

T1 sequence (P0AES4 whole entry, one chain of several): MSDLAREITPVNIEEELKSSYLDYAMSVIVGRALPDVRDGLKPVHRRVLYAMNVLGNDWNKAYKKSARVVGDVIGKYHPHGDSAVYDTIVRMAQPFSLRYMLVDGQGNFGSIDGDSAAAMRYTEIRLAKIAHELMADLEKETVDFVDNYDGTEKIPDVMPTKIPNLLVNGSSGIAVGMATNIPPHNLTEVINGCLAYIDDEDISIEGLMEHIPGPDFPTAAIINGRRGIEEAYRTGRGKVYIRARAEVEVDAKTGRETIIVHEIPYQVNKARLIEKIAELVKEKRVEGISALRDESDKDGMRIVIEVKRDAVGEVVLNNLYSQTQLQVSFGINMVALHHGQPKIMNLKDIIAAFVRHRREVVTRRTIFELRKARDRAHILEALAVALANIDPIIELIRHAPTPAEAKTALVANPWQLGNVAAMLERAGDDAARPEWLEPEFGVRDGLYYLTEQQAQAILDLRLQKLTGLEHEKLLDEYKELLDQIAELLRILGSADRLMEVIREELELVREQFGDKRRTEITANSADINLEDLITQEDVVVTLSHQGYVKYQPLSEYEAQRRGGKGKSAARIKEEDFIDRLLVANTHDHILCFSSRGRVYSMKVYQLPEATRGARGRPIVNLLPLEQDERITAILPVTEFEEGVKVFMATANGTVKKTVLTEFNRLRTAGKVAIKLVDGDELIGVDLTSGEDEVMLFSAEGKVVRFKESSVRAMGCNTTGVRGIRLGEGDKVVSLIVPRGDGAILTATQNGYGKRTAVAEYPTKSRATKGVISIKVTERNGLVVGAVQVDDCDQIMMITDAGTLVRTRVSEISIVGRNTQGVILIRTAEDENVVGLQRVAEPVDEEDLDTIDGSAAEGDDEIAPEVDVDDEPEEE

`COC(=O)[C@@H]1CSCc2c(O)cc(OC)c(C)c2C(=O)O[C@H](COC(C)=O)CCC(=S)N1` [Example 11, (4R,9S)-9-acetoxymethyl-15-hydroxy-13-methoxy-12-methyl-11-oxo-6-thioxo-3,4,5,6,7,8,9,11-octahydro-1H-10,2,5-benzoxathiaazacyclotridecine-4-carboxylic acid methyl ester] was tested, and the MIC [1] was 0.5 µg/mL (≈ 1.03 µM), the “maximum non-effective concentration of the test compound (MNC)” value (from here on “maximum non-effective concentration”) [2] was 0.02 µg/mL and the MIC [3] was 0.5 µg/mL (≈ 1.03 µM). The MIC [4] was 8 µg/mL (≈ 16.5 µM), the MIC [5] was 2 µg/mL (≈ 4.12 µM) and the MIC [6] was greater than 64 µg/mL. It also gave an MIC [7] of 0.12 µg/mL (≈ 0.247 µM) and an MIC [8] of 2 µg/mL (≈ 4.12 µM).
For `COc1cc(O)c2c(c1C)C(=O)O[C@H](CO)CCC(=S)N[C@H](C(=O)NC1CCCC1)CSC2` [Example 14, (4R,9S)-15-hydroxy-9-hydroxymethyl-13-methoxy-12-methyl-11-oxo-6-thioxo-3,4,5,6,7,8,9,11-octahydro-1H-10,2,5-benzoxathiaazacyclotridecine-4-carboxylic acid cyclopentylamide], the MIC [1] was 16 µg/mL (≈ 32.2 µM), the “maximum non-effective concentration” value [2] was 0.2 µg/mL and the MIC [3] was 8 µg/mL (≈ 16.1 µM). It also gave an MIC [4] of 8 µg/mL (≈ 16.1 µM), an MIC [5] of 4 µg/mL (≈ 8.05 µM) and an MIC [6] of 64 µg/mL (≈ 129 µM). It also gave an MIC [7] of 1 µg/mL (≈ 2.01 µM) and an MIC [8] of 4 µg/mL (≈ 8.05 µM).
For `COc1cc(O)c2c(c1C)C(=O)O[C@H](CO)CCC(=S)N[C@H](c1nc(C)no1)CSC2` [Example 16, (4R,9S)-15-hydroxy-9-hydroxymethyl-13-methoxy-12-methyl-4-(3-methyl-1,2,4-oxadiazol-5-yl)-6-thioxo-3,4,5,6,7,8,9,11-octahydro-1H-10,2,5-benzoxathiaazacyclotridecine-11-one], the “maximum non-effective concentration” value [2] was 0.01 µg/mL.
For `COC(=O)[C@@H]1CSCc2c(O)cc(OC)c(C)c2C(=O)OCCCCC(=S)N1` [Example 23, (R)-16-hydroxy-14-methoxy-13-methyl-12-oxo-6-thioxo-1,3,4,5,6,7,8,9,10,12-decahydro-11,2,5-benzoxathiaazacyclotetradecine-4-carboxylic acid methyl ester], the MIC [1] was 0.5 µg/mL (≈ 1.17 µM), the “maximum non-effective concentration” value [2] was 0.01 µg/mL and the MIC [3] was 0.25 µg/mL (≈ 0.585 µM). For the same compound, the MIC [4] was 8 µg/mL (≈ 18.7 µM), the MIC [5] was 2 µg/mL (≈ 4.68 µM) and the MIC [6] was 16 µg/mL (≈ 37.4 µM). The MIC [7] was 0.12 µg/mL (≈ 0.281 µM) and the MIC [8] was 1 µg/mL (≈ 2.34 µM).
With `CCCNC(=O)[C@@H]1CSCc2c(O)cc(OC)c(C)c2C(=O)OCCCCC(=S)N1` [Example 26, (R)-16-hydroxy-14-methoxy-13-methyl-12-oxo-6-thioxo-1,3,4,5,6,7,8,9,10,12-decahydro-11,2,5-benzoxathiaazacyclotetradecine-4-carboxylic acid propylamide] the MIC [1] was 2 µg/mL (≈ 4.4 µM), the “maximum non-effective concentration” value [2] was 0.04 µg/mL and the MIC [3] was 0.5 µg/mL (≈ 1.1 µM). The MIC [4] was 32 µg/mL (≈ 70.4 µM), the MIC [5] was 4 µg/mL (≈ 8.8 µM) and the MIC [6] was greater than 64 µg/mL. It also gave an MIC [7] of 0.12 µg/mL (≈ 0.264 µM) and an MIC [8] of 2 µg/mL (≈ 4.4 µM).
With `C#CCNC(=O)[C@@H]1CSCc2c(O)cc(OC)c(C)c2C(=O)OCCCCC(=S)N1` [Example 27, (R)-16-hydroxy-14-methoxy-13-methyl-12-oxo-6-thioxo-1,3,4,5,6,7,8,9,10,12-decahydro-11,2,5benzoxathiaazacyclotetradecine-4-carboxylic acid prop-2-ynylamide] the MIC [1] was 1 µg/mL (≈ 2.22 µM), the “maximum non-effective concentration” value [2] was 0.01 µg/mL and the MIC [3] was 0.5 µg/mL (≈ 1.11 µM). For the same compound, the MIC [4] was 2 µg/mL (≈ 4.44 µM), the MIC [5] was 4 µg/mL (≈ 8.88 µM) and the MIC [6] was 64 µg/mL (≈ 142 µM). The MIC [7] was 0.12 µg/mL (≈ 0.266 µM) and the MIC [8] was 0.5 µg/mL (≈ 1.11 µM).
`COC(=O)[C@@H]1CSCc2c(O)cc(OC)c(C)c2C(=O)OC[C@H](O)CCC(=S)N1` [Example 32, (4R,9R)-9,16-dihydroxy-14-methoxy-13-methyl-12-oxo-6-thioxo-1,3,4,5,6,7,8,9,10,12-decahydro-11,2,5-benzoxathiaazacyclotetradecine-4-carboxylic acid methyl ester] was tested, and the MIC [1] was 1 µg/mL (≈ 2.25 µM), the “maximum non-effective concentration” value [2] was 0.01 µg/mL and the MIC [3] was 0.5 µg/mL (≈ 1.13 µM). The MIC [4] was 4 µg/mL (≈ 9.02 µM), the MIC [5] was 2 µg/mL (≈ 4.51 µM) and the MIC [6] was greater than 64 µg/mL. For the same compound, the MIC [7] was 0.25 µg/mL (≈ 0.564 µM) and the MIC [8] was 2 µg/mL (≈ 4.51 µM).
With `COc1cc(O)c2c(c1C)C(=O)OCCCCC(=O)N[C@H](c1nc(C)no1)CSC2` [Example 33, (R)-16-hydroxy-14-methoxy-13-methyl-4-(3-methyl-1,2,4-oxadiazol-5-yl)-1,3,4,5,6,7,8,9,10,12-decahydro-11,2,5-benzoxathiaazacyclotetradecine-6,12-dione] the MIC [1] was 0.5 µg/mL (≈ 1.15 µM), the “maximum non-effective concentration” value [2] was 0.01 µg/mL and the MIC [3] was 0.25 µg/mL (≈ 0.574 µM). It also gave an MIC [4] of 4 µg/mL (≈ 9.18 µM), an MIC [5] of 1 µg/mL (≈ 2.3 µM) and an MIC [6] of 32 µg/mL (≈ 73.5 µM). The MIC [7] was 0.25 µg/mL (≈ 0.574 µM) and the MIC [8] was 0.5 µg/mL (≈ 1.15 µM).
`COc1cc(O)c2c(c1C)C(=O)OCCCCC(=O)N[C@H](c1nc(C)no1)C[S@@+]([O-])C2` [Example 111, (2S,4R)-16-hydroxy-14-methoxy-13-methyl-4-(3-methyl-1,2,4-oxadiazol-5-yl)-2-oxo-1,3,4,5,6,7,8,9,10,12-benzoxathiaazacyclotetradecin-6,12-dione] was tested, and the “maximum non-effective concentration” value [2] was 0.1 µg/mL.
`COc1cc(O)c2c(c1C)C(=O)OCCCCC(=S)N[C@H](c1nc(CN)no1)CSC2.Cl` [Example 130, (R)-4-(3-aminomethyl-1,2,4-oxadiazol-5-yl)-16-hydroxy-14-methoxy-13-methyl-6-thioxo-1,3,4,5,6,7,8,9,10,12-decahydro-11,2,5-benzoxathiaazacyclotetradecin-12-one hydrochloride] showed an MIC [1] of 0.5 µg/mL, an MIC [3] of 0.25 µg/mL and an MIC [4] of 64 µg/mL. It also gave an MIC [5] of 0.5 µg/mL, an MIC [6] of 32 µg/mL and an MIC [7] of 0.12 µg/mL. The MIC [8] was 0.5 µg/mL.
For `COc1cc(O)c2c(c1C)C(=O)OCCCCC(=O)N[C@H](c1nc(CNC(C)C)no1)CSC2` [Example 132, (R)-16-hydroxy-4-[3-(isopropylamino)-methyl-1,2,4-oxadiazol-5-yl]-14-methoxy-13-methyl-1,3,4,5,6,7,8,9,10,12-decahydro-11,2,5-benzoxathiaazacyclotetradecin-6,12-dione hydrochloride], the MIC [1] was 4 µg/mL, the MIC [3] was 2 µg/mL and the MIC [4] was greater than 64 µg/mL. For the same compound, the MIC [5] was 4 µg/mL, the MIC [6] was 64 µg/mL and the MIC [7] was 0.5 µg/mL. It also gave an MIC [8] of 4 µg/mL.
`COc1cc(O)c2c(c1C)C(=O)OCCCCC(=S)N[C@H](c1nc(CNC(C)=O)no1)CSC2` [Example 142, (R)-N-[5-(16-hydroxy-14-methoxy-13-methyl-12-oxo-6-thioxo-1,3,4,5,6,7,8,9,10,12-decahydro-11,2,5-benzoxathiaazacyclotetradecin-4-yl)-1,2,4-oxadiazol-3-ylmethyl]-acetamide] showed an MIC [1] of 2 µg/mL (≈ 3.93 µM), an MIC [3] of 1 µg/mL (≈ 1.97 µM) and an MIC [4] greater than 64 µg/mL. It also gave an MIC [5] of 1 µg/mL (≈ 1.97 µM), an MIC [6] of 64 µg/mL (≈ 126 µM) and an MIC [7] of 0.12 µg/mL (≈ 0.236 µM). It also gave an MIC [8] of 1 µg/mL (≈ 1.97 µM).
`COC(=O)c1c(Br)c(OC)cc(O)c1CSC[C@H](Nc1nc(-c2ccc(C(=O)O)cc2)cs1)c1nc(C)no1` [Example 171] was tested, and the MIC [1] was 8 µg/mL (≈ 12.6 µM), the MIC [3] was 4 µg/mL (≈ 6.29 µM) and the MIC [4] was greater than 64 µg/mL. For the same compound, the MIC [5] was 2 µg/mL (≈ 3.15 µM), the MIC [6] was greater than 64 µg/mL and the MIC [7] was 1 µg/mL (≈ 1.57 µM). For the same compound, the MIC [8] was 4 µg/mL (≈ 6.29 µM).
Compound `COC(=O)c1c(C)c(OC)cc(O)c1CSC[C@H](Nc1nc(-c2ccccc2)ns1)c1nc(C)no1` [Example 175, (R)-3-hydroxy-5-methoxy-6-methyl-2-[2-(3-methyl-1,2,4-oxadiazol-5-yl)-2-(3-phenyl-1,2,4-thiadiazol-5-ylamino)-ethylsulfanylmethyl]-benzoic acid methyl ester] has an MIC [1] of 4 µg/mL (≈ 7.58 µM), an MIC [3] of 1 µg/mL (≈ 1.9 µM) and an MIC [4] greater than 64 µg/mL. For the same compound, the MIC [5] was 4 µg/mL (≈ 7.58 µM), the MIC [6] was greater than 64 µg/mL and the MIC [7] was 1 µg/mL (≈ 1.9 µM). It also gave an MIC [8] of 4 µg/mL (≈ 7.58 µM).

— patent US5594135A, “Tricyclic DNA gyrase inhibitors” (Hoffmann-La Roche Inc., priority 1994, dated 1997)
